Data on 16 compounds can be found in patent US20230145835A1, “Modulators of Alpha-4-beta-7 Integrin and MAdCAM” (48HD Biopharma Inc., priority 2021, published 2023).

Numbered stars: 1 amine (or outer) side, 2 acyl side, 3 side chain; on linkers, the order of the positions; unused ones are H or OH. Bridge positions count the residues as written; N and C are the ends. Square brackets hold non-standard residues; d marks the D form. Peptide text beside a SMILES is read from it. X3 = O=C(/C=N/OCCCCCCOc1cc(C[*:2])cc(C[*:3])c1)[*:1]; X1 = O=C(C=NOCCCCCCOc1cc(C[*:2])cc(C[*:3])c1)[*:1]; X5 = O=C(CCCCCCOc1cc(C[*:2])cc(C[*:3])c1)[*:1]; Cba = N[C@@H](CC1CCC1)C(=O)O; Nle = CCCC[C@H](N)C(=O)O

One assay has as its target T1, rh-integrin α4β7/LPAM-1 (Homo sapiens, UniProt P13612+P26010).
T1 sequence (P13612 34-977 limits assumed): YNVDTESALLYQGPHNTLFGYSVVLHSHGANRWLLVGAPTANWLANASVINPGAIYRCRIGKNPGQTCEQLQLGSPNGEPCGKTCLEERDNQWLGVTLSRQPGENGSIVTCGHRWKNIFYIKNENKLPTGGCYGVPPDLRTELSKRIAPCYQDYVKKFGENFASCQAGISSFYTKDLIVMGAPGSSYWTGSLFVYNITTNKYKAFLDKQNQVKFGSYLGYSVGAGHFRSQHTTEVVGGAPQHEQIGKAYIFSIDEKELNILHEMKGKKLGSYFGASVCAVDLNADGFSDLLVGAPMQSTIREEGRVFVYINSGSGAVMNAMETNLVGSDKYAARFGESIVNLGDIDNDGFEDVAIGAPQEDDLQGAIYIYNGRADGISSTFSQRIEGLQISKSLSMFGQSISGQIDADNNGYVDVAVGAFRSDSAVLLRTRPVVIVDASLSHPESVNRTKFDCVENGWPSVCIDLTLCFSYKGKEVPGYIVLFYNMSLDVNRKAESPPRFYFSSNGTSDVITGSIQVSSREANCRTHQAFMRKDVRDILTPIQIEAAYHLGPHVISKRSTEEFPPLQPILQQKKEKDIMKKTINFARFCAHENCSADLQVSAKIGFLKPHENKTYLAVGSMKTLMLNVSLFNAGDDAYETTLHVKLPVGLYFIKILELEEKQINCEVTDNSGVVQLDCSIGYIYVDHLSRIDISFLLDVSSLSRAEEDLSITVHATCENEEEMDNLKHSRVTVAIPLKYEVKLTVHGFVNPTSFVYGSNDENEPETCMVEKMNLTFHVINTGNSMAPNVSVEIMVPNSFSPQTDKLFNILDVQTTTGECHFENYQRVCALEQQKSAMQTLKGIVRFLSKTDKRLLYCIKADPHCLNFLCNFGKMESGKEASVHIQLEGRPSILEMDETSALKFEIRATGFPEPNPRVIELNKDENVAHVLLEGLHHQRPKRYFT
T1 sequence (P26010 20-723 limits assumed): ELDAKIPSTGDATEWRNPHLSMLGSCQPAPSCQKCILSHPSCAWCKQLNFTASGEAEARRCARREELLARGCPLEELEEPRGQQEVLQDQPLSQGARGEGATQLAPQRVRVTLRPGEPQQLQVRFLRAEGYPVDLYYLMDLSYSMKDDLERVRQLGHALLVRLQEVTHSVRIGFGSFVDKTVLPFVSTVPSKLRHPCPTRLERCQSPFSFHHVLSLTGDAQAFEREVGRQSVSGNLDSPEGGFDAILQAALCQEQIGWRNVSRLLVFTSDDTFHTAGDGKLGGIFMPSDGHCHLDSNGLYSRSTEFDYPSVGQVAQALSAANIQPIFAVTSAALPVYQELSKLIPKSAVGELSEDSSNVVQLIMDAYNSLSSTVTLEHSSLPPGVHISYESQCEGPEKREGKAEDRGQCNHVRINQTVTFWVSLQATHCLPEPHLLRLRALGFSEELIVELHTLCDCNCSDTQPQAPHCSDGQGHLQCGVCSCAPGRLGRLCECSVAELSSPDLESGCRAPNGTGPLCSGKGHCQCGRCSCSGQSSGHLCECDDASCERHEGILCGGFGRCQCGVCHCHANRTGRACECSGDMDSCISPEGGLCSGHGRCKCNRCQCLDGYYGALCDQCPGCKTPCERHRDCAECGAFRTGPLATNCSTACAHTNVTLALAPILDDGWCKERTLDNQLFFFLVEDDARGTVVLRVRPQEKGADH
The assay is described as follows: α4β7-MadCAM Competition ELISA (Example 4). Type of assay: binding. Conditions: Table 3 Representative compounds; inhibition of MAdCAM binding to coated α4β7; read-out: IC50. As for the experimental part:
After washing with wash buffer, 200 μL assay buffer was added to each well and incubated for one hour at 28° C. After another wash with wash buffer, 100 μL of a MAdCAM and peptide mixture in assay buffer was added to each well and incubated for one hour at 28° C., followed by washing with wash buffer.
With `CSCC[C@@H]1NC(=O)[C@@H]2CCCN2C(=O)[C@@H]2CSCc3cc(cc(c3)OCCCCCCO/N=C/C(=O)N[C@@H](C)C(=O)N2)CSC[C@@H](C(N)=O)NC(=O)[C@H](CCC(=O)O)NC(=O)[C@H](CCC(N)=O)NC(=O)[C@H](Cc2c[nH]c3ccccc23)NC(=O)[C@H](C(C)C)NC(=O)[C@H](CC(=O)O)NC1=O` [compound 62, TSL6- SDCHDPPKVC] (ACPMDVWQEC-NH2; linker N-2-10 via X3), the IC50 was found to be 6.42 µM.
In the case of `CCCC[C@@H]1NC(=O)[C@@H]2CCCN2C(=O)[C@@H]2CSCc3cc(cc(c3)OCCCCCCO/N=C/C(=O)N[C@@H](CCCNC(=N)N)C(=O)N2)CSC[C@@H](C(N)=O)NC(=O)[C@H](CCC(=O)O)NC(=O)[C@H](C)NC(=O)[C@H](C)NC(=O)[C@H]([C@@H](C)CC)NC(=O)[C@H](CC(=O)O)NC1=O` [compound 12] (RCP[Nle]DIAAEC-NH2; linker N-2-10 via X3), the IC50 is 0.204 µM.
For the compound `CC(C)C[C@@H]1NC(=O)[C@@H]2CCCN2C(=O)[C@@H]2CSCc3cc(cc(c3)OCCCCCCO/N=C/C(=O)N[C@@H](CCCCN)C(=O)N2)CSC[C@@H](C(N)=O)NC(=O)[C@H](CO)NC(=O)[C@@H]2CCCN2C(=O)[C@H](C(C)C)NC(=O)[C@H](CC(=O)O)NC1=O` [compound 31, TSL6- SKCPLDVPSC] (KCPLDVPSC-NH2; linker N-2-9 via X3), the IC50 is 0.723 µM.
For `C[C@@H](O)[C@@H]1NC(=O)[C@H](CC(=O)O)NC(=O)[C@@H]2CCCN2C(=O)[C@H](Cc2c[nH]c3ccccc23)NC(=O)[C@@H]2CSCc3cc(cc(c3)OCCCCCCO/N=C/C(=O)N[C@@H](CC(=O)O)C(=O)N2)CSC[C@H](C(N)=O)NC(=O)[C@H](Cc2cnc[nH]2)NC(=O)[C@H](Cc2ccc(O)cc2)NC1=O` [compound 95, TSL6- SDCWPDTYHC] (DCWPDTYH[dC]-NH2; linker N-2-9 via X3), the IC50 was 114 µM.
`CC(C)C[C@@H]1NC(=O)[C@@H]2CCCN2C(=O)[C@@H]2CSCc3cc(cc(c3)OCCCCCCO/N=C/C(=O)N[C@@H](CCCCN)C(=O)N2)CSC[C@@H](C(N)=O)NC(=O)[C@H](CO)NC(=O)[C@@H]2CCCN2C(=O)[C@H](C)NC(=O)[C@H](CC(=O)O)NC1=O` [compound 50, TSL6- SKCPLDAPSC] (KCPLDAPSC-NH2; linker N-2-9 via X3): the IC50 turned out to be 1.74 µM.
Regarding `CC(C)C[C@@H]1NC(=O)[C@H](CO)NC(=O)[C@H](CCCNC(=N)N)NC(=O)[C@@H]2CSCC(=O)N[C@@H](CCCNC(=N)N)C(=O)N[C@@H](CSSC[C@@H](C(=O)N[C@@H](Cc3c[nH]c4ccccc34)C(=O)N[C@@H](CCC(N)=O)C(N)=O)NC(=O)[C@H](C(C)C)NC(=O)[C@@H](CC(=O)O)NC1=O)C(=O)N[C@@H](CO)C(=O)N[C@@H](CC(=O)O)C(=O)N[C@@H]([C@@H](C)O)C(=O)N[C@@H](CC(C)C)C(=O)N2` (racemic) [compound 87], the IC50 was determined as 71.3 µM.
Regarding `CCCC[C@@H]1NC(=O)[C@@H]2CCCN2C(=O)[C@@H]2CSCc3cc(cc(c3)OCCCCCCC(=O)NCC(=O)N[C@@H](CCCCN)C(=O)N2)CSC[C@@H](C(N)=O)NC(=O)[C@H](CCC(=O)O)NC(=O)[C@H](CCC(N)=O)NC(=O)[C@H](Cc2c[nH]c3ccccc23)NC(=O)[C@H](CC2CCC2)NC(=O)[C@H](CC(=O)O)NC1=O` [compound 45, TSLC7-GKCP{Nle}D {CbA}WQEC] (GKCP[Nle]D[Cba]WQEC-NH2; linker N-3-11 via X5), the IC50 worked out at 1.61 µM.
For the compound `CSCC[C@@H]1NC(=O)/C=N/OCCCCCCOc2cc3cc(c2)CSC[C@H](NC1=O)C(=O)N[C@@H](Cc1ccc(O)cc1)C(=O)N1CCC[C@H]1C(=O)N[C@@H](CC(=O)O)C(=O)N[C@@H]([C@@H](C)O)C(=O)N[C@@H](Cc1ccc(O)cc1)C(=O)N[C@@H](Cc1cnc[nH]1)C(=O)N[C@H](C(N)=O)CSC3` [compound 101, TSL6- SMCYPDTYHC] (MCYPDTYHC-NH2; linker N-2-9 via X3), the IC50 came out at 167 µM.
Consider `C[C@@H](O)[C@@H]1NC(=O)[C@H](CC(=O)O)NC(=O)[C@@H]2CCCN2C(=O)[C@H](Cc2ccc(O)cc2)NC(=O)[C@@H]2CSCc3cc(cc(c3)OCCCCCCO/N=C/C(=O)N[C@@H](CC(=O)O)C(=O)N2)CSC[C@@H](C(N)=O)NC(=O)[C@H](Cc2cnc[nH]2)NC(=O)[C@H](Cc2ccc(O)cc2)NC1=O` [compound 88, TSL6- SDCYPDTYHC] (DCYPDTYHC-NH2; linker N-2-9 via X3), for which the IC50 is 72.5 µM.
Take `CCCC[C@@H]1NC(=O)[C@@H]2CCCN2C(=O)[C@@H]2CSCc3cc(cc(c3)OCCCCCCO/N=C/C(=O)N[C@@H](CCCNC(=N)N)C(=O)N2)CSC[C@@H](C(N)=O)NC(=O)[C@H](CCC(=O)O)NC(=O)[C@H](CCC(N)=O)NC(=O)[C@H](Cc2c[nH]c3ccccc23)NC(=O)[C@H]([C@@H](C)CC)NC(=O)[C@H](CC(=O)O)NC1=O` [compound 9] (RCP[Nle]DIWQEC-NH2; linker N-2-10 via X3): the half-inhibitory concentration (IC50) amounted to 0.187 µM.
On the same count and under the same terms, the value for `CC(C)C[C@@H]1NC(=O)[C@@H]2CCCN2C(=O)[C@@H](NC(=O)[C@H](CCCCN)NC(=O)[C@@H](N)CO)CSSC[C@@H](C(N)=O)NC(=O)[C@H](CO)NC(=O)[C@@H]2CCCN2C(=O)[C@H](C(C)C)NC(=O)[C@H](CC(=O)O)NC1=O` [compound 41] (H-SKCPLDVPSC-NH2; disulfide 3-10) was 1.3 µM; that for `C[C@@H](O)[C@@H]1NC(=O)[C@H](CC(=O)O)NC(=O)[C@@H]2CCCN2C(=O)[C@H](Cc2ccccc2)NC(=O)[C@@H]2CSCc3cc(cc(c3)OCCCCCCO/N=C/C(=O)N[C@@H](CC(=O)O)C(=O)N2)CSC[C@@H](C(N)=O)NC(=O)[C@H](Cc2cnc[nH]2)NC(=O)[C@H](Cc2ccc(O)cc2)NC1=O` [compound 84, TSL6- SDCFPDTYHC] (DCFPDTYHC-NH2; linker N-2-9 via X3) was 65.7 µM; that for `CC(C)C[C@@H]1NC(=O)[C@@H]2CCCN2C(=O)[C@@H]2CSCc3cc(cc(c3)OCCCCCCO/N=C/C(=O)N[C@@H](CCCCN)C(=O)N2)CSC[C@@H](C(N)=O)NC(=O)[C@H](CCC(=O)O)NC(=O)[C@H]([C@@H](C)O)NC(=O)[C@@H]2CCCN2C(=O)[C@H]([C@@H](C)O)NC(=O)[C@H](CC(=O)O)NC1=O` [compound 34, TSL6- SKCPLDTPTEC] (KCPLDTPTEC-NH2; linker N-2-10 via X3) was 0.748 µM.
In the case of `CC(C)C[C@@H]1NC(=O)/C=N/OCCCCCCOc2cc3cc(c2)CSC[C@H](NC1=O)C(=O)N[C@@H](Cc1ccc(O)cc1)C(=O)N1CCC[C@H]1C(=O)N[C@@H](CC(=O)O)C(=O)N[C@@H]([C@@H](C)O)C(=O)N[C@@H](Cc1ccc(O)cc1)C(=O)N[C@@H](Cc1cnc[nH]1)C(=O)N[C@H](C(N)=O)CSC3` [compound 73, TSL6- SLCYPDTYHC] (LCYPDTYHC-NH2; linker N-2-9 via X3), the half-inhibitory concentration (IC50) stood at 30.6 µM.

The same assay, now with this note: competition ELISA, 4 μg/mL α4β7 coated, MAdCAM and peptide mixture, 28° C.; read-out: IC50.
For `C[C@@H]1NC(=O)C=NOCCCCCCOc2cc3cc(c2)CSC[C@H](NC1=O)C(=O)N[C@@H](Cc1ccc(O)cc1)C(=O)N1CCC[C@H]1C(=O)N[C@@H](CC(=O)O)C(=O)N[C@@H]([C@@H](C)O)C(=O)N[C@@H](Cc1ccc(O)cc1)C(=O)N[C@@H](Cc1c[nH]cn1)C(=O)N[C@H](C(=O)O)CSC3` [SEQ ID NO: 39] (ACYPDTYHC-OH; linker N-2-9 via X1), the IC50 came out at 111 µM.
With `CC(C)C[C@@H]1NC(=O)[C@@H]2CCCN2C(=O)[C@@H]2CSCc3cc(cc(c3)OCCCCCCON=CC(=O)N[C@@H](CCCCN)C(=O)N2)CSC[C@@H](C(=O)O)NC(=O)[C@H](CO)NC(=O)[C@@H]2CCCN2C(=O)[C@H](C(C)C)NC(=O)[C@H](C)NC1=O` [SEQ ID NO: 56] (KCPLAVPSC-OH; linker N-2-9 via X1), the IC50 worked out at 55.9 µM.
